One assay concerns HL60 cells. In words: Differentiation and apoptosis of HL 60 cells (NBT staining). Format: cell-based. As to conditions: for EC50 (culture day necessary to convert cells into a differentiated or apoptosed phenotype): 1 μM compound, culture up to 9 days, NBT staining. How it is done: HL 60 cells were evaluated for the effect of retinoic acid and the compound of Example 1 on both differentiation and apoptosis end points by the method described in Molecular and Cellular Biology, 15, 3540-3551 (1995). Cells were grown in culture for times up to 9 days in the presence of 1 μM all-trans retinoic acid (t-RA) or 1 μM compound of Example 1. At the end of each day of the culture period, cells were washed and stained with NBT (nitro blue tetrazolium) and counted.

For assay [1], the system named is squamous-cell carcinoma of the head and neck. As to conditions: cited from earlier work.

In the case of `CC1(C)C(=O)C(C)(C)c2cc(C(=O)Nc3ccc(C(=O)O)cc3)ccc21` [Example 1, 4(1',1',3',3'-Tetramethyl-2'-keto-indan-5'-carboxamido)benzoicacid], the “EC50 (culture day necessary to convert cells into a differentiated or apoptosed phenotype)” value with HL60 cells amounted to 4.0 days. Further, the “activity in this assay compared with t-RA (in words)” value in the assay with HL60 cells (1 μM, compared with 1 μM t-RA) is given as “comparable to t-RA”. Also, the “percentage of either differentiated or apoptosed HL60 cells” value is given as 11% with HL60 cells (1 μM, day 1); 22% in the assay with HL60 cells (1 μM, day 2); 40% in the assay with HL60 cells (1 μM, day 3); 50% in the assay on HL60 cells (1 μM, day 4); 61% with HL60 cells (1 μM, day 5); 78% in the assay on HL60 cells (1 μM, day 6). Also, the “percentage of either differentiated or apoptosed HL60 cells” value is given as 85% in the assay with HL60 cells (1 μM, day 7); 95% in the assay on HL60 cells (1 μM, day 8); 93% with HL60 cells (1 μM, day 9).
Take `CC1=C(/C=C/C(C)=C/C=C/C(C)=C\C(=O)O)C(C)(C)CCC1` [Isotretinoin]: the “prevention of second primary tumors (in words)” value in assay [1] is recorded as “useful in prevention of second primary tumors”.
Take `CC1=C(/C=C/C(C)=C/C=C/C(C)=C/C(=O)O)C(C)(C)CCC1` [all-trans retinoic acid]: the “EC50 (culture day necessary to convert cells into a differentiated or apoptosed phenotype)” value in the assay on HL60 cells is on record as 3.2 days. The “percentage of either differentiated or apoptosed HL60 cells” value stood at 21% with HL60 cells (1 μM, day 1); 23% in the assay on HL60 cells (1 μM, day 2); 48% in the assay with HL60 cells (1 μM, day 3); 80% in the assay with HL60 cells (1 μM, day 4); 95% in the assay with HL60 cells (1 μM, day 5); 96% in the assay with HL60 cells (1 μM, day 6). Further, the “percentage of either differentiated or apoptosed HL60 cells” value in the assay on HL60 cells (1 μM, day 7) turned out to be 97%; in the assay on HL60 cells (1 μM, day 8), 98%; with HL60 cells (1 μM, day 9) it was 97%.

The record behind these values is patent US6008251A, “Retinoid-like compounds” (Bristol-Myers Squibb Company, priority 1998, dated 1999).
